# Experimental data published in the supplement of paper PMC10307832.
# Compound: CC[C@@H]1C(=O)N(C)c2cnc(Nc3ccc(C(=O)NC4CCN(C)CC4)cc3OC)nc2N1C1CCCC1 [BI-2536] + NC(=O)Nc1cc(-c2cccc(F)c2)sc1C(=O)N[C@H]1CCCNC1 [AZD7762] (partner 0.2 µM)
# Assay: relative viability (nuclei count vs DMSO), 5 days (fraction); higher = more cells survive
# Conditions: first compound 0.01 µM
# Method in brief: (§1)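 Cells from lung cancer lines were seeded into 1536-well plates and, one day later, dosed by pin tool. Treatments were either a single drug or a fixed dose of an anchor drug with five library-drug doses (not always all listed) in √10 steps. After 5 days, nuclei were stained in a one-step fixation (final 0.05% Triton X-100, 1% formaldehyde, 1 ug/ml Hoechst) and counted on 4× images, and relative viability is the treated-to-vehicle nuclei ratio, as the median of duplicate plates.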
row,Cell Line,relative viability
1,H3255,0.951
2,LOU-NH91,0.722
3,ChaGo-K-1,0.828
4,NCI-H2170,0.854
5,NCI-H2405,0.698
6,HOP-62,0.505
7,HCC-44,1.08
8,LU99A,0.309
9,BEN,0.67
10,HARA,0.325
11,HCC-78,0.75
12,NCI-H322M,0.61
13,LCLC-97TM1,0.159
14,A-427,0.728
15,NCI-H441,0.977
16,NCI-H1734,0.461
17,NCI-H460,0.724
18,NCI-H2347,0.647
19,NCI-H1395,0.382
20,201T,0.609
21,NCI-H1915,0.641
22,HCC-827,0.234
23,LXF-289,1
24,NCI-H23,0.236
25,NCI-H647,0.542
26,NCI-H1651,0.476

# Same assay, conditions: first compound 0.03162 µM
row,Cell Line,relative viability
1,NCI-H2087,1.45
2,H3255,0.728
3,LOU-NH91,0.76
4,ChaGo-K-1,0.854
5,NCI-H2170,0.83
6,NCI-H2405,0.624
7,HOP-62,0.653
8,HCC-44,1.06
9,LU99A,0.334
10,BEN,0.711
11,HARA,0.424
12,HCC-78,0.576
13,NCI-H322M,0.53
14,LCLC-97TM1,0.216
15,A-427,0.867
16,NCI-H441,1.21
17,NCI-H1734,0.596
18,NCI-H460,0.649
19,NCI-H2347,0.643
20,NCI-H1395,0.348
21,201T,0.647
22,NCI-H1915,0.696
23,HCC-827,0.217
24,LXF-289,1.14
25,NCI-H23,0.236
26,NCI-H647,0.308
27,NCI-H1651,0.543

# Same assay, conditions: first compound 0.1 µM
row,Cell Line,relative viability
1,NCI-H2087,1.23
2,H3255,0.66
3,LOU-NH91,0.42
4,ChaGo-K-1,0.644
5,NCI-H2170,0.184
6,NCI-H2405,0.269
7,HOP-62,0.235
8,HCC-44,0.978
9,LU99A,0.111
10,BEN,0.521
11,HARA,0.167
12,HCC-78,0.687
13,NCI-H322M,0.496
14,LCLC-97TM1,0.0989
15,A-427,0.436
16,NCI-H441,0.228
17,NCI-H1734,0.16
18,NCI-H460,0.473
19,NCI-H2347,0.73
20,NCI-H1395,0.319
21,201T,0.588
22,NCI-H1915,0.535
23,HCC-827,0.186
24,LXF-289,0.61
25,NCI-H23,0.127
26,NCI-H647,0.257
27,NCI-H1651,0.392

# Same assay, conditions: first compound 0.3162 µM
row,Cell Line,relative viability
1,NCI-H2087,0.111
2,H3255,0.228
3,LOU-NH91,0.316
4,ChaGo-K-1,0.241
5,NCI-H2170,0.146
6,NCI-H2405,0.303
7,HOP-62,0.15
8,HCC-44,0.655
9,LU99A,0.145
10,BEN,0.419
11,HARA,0.158
12,HCC-78,0.433
13,NCI-H322M,0.394
14,LCLC-97TM1,0.0787
15,A-427,0.195
16,NCI-H441,0.174
17,NCI-H1734,0.134
18,NCI-H460,0.0346
19,NCI-H2347,0.545
20,NCI-H1395,0.351
21,201T,0.33
22,NCI-H1915,0.195
23,HCC-827,0.182
24,LXF-289,0.0819
25,NCI-H23,0.12
26,NCI-H647,0.0341
27,NCI-H1651,0.261

# Same assay, conditions: first compound 1 µM
row,Cell Line,relative viability
1,NCI-H2087,0.114
2,H3255,0.298
3,LOU-NH91,0.329
4,ChaGo-K-1,0.202
5,NCI-H2170,0.2
6,NCI-H2405,0.289
7,HOP-62,0.101
8,HCC-44,0.361
9,LU99A,0.102
10,BEN,0.396
11,HARA,0.137
12,HCC-78,0.249
13,NCI-H322M,0.406
14,LCLC-97TM1,0.0721
15,A-427,0.173
16,NCI-H441,0.21
17,NCI-H1734,0.142
18,NCI-H460,0.0318
19,NCI-H2347,0.325
20,NCI-H1395,0.325
21,201T,0.255
22,NCI-H1915,0.109
23,HCC-827,0.14
24,LXF-289,0.083
25,NCI-H23,0.088
26,NCI-H647,0.0503
27,NCI-H1651,0.0882

# Compound: CC[C@@H]1C(=O)N(C)c2cnc(Nc3ccc(C(=O)NC4CCN(C)CC4)cc3OC)nc2N1C1CCCC1 [BI-2536] + Nc1ncn([C@H]2C[C@H](O)[C@@H](CO)O2)c(=O)n1 [Decitabine] (partner 2 µM)
# Assay: as above
# Conditions: first compound 0.01 µM
# Method in brief: as §1
row,Cell Line,relative viability
1,NCI-H2087,0.273
2,H3255,0.565
3,LOU-NH91,0.816
4,ChaGo-K-1,0.524
5,NCI-H2170,0.466
6,NCI-H2405,0.721
7,HOP-62,0.201
8,HCC-44,1.01
9,LU99A,0.796
10,BEN,0.699
11,HARA,0.529
12,HCC-78,0.678
13,NCI-H322M,0.69
14,LCLC-97TM1,0.228
15,A-427,0.555
16,NCI-H441,0.244
17,NCI-H1734,0.5
18,NCI-H460,0.596
19,NCI-H2347,0.595
20,NCI-H1395,0.628
21,201T,0.873
22,NCI-H1915,0.261
23,HCC-827,0.357
24,LXF-289,0.382
25,NCI-H23,0.3
26,NCI-H647,0.391
27,NCI-H1651,0.592

# Same assay, conditions: first compound 0.03162 µM
row,Cell Line,relative viability
1,NCI-H2087,0.247
2,H3255,0.374
3,LOU-NH91,0.685
4,ChaGo-K-1,0.402
5,NCI-H2170,0.471
6,NCI-H2405,0.662
7,HOP-62,0.209
8,HCC-44,0.974
9,LU99A,1.02
10,BEN,0.72
11,HARA,0.521
12,HCC-78,0.692
13,NCI-H322M,0.64
14,LCLC-97TM1,0.277
15,A-427,0.539
16,NCI-H441,0.247
17,NCI-H1734,0.457
18,NCI-H460,0.486
19,NCI-H2347,0.736
20,NCI-H1395,0.509
21,201T,0.838
22,NCI-H1915,0.238
23,HCC-827,0.363
24,LXF-289,0.376
25,NCI-H23,0.364
26,NCI-H647,0.301
27,NCI-H1651,0.627

# Same assay, conditions: first compound 0.1 µM
row,Cell Line,relative viability
1,NCI-H2087,0.149
2,H3255,0.428
3,LOU-NH91,0.66
4,ChaGo-K-1,0.403
5,NCI-H2170,0.431
6,NCI-H2405,0.387
7,HOP-62,0.231
8,HCC-44,0.843
9,LU99A,0.717
10,BEN,0.429
11,HARA,0.433
12,HCC-78,0.694
13,NCI-H322M,0.649
14,LCLC-97TM1,0.163
15,A-427,0.469
16,NCI-H441,0.153
17,NCI-H1734,0.37
18,NCI-H460,0.114
19,NCI-H2347,0.589
20,NCI-H1395,0.366
21,201T,0.815
22,NCI-H1915,0.227
23,HCC-827,0.269
24,LXF-289,0.363
25,NCI-H23,0.244
26,NCI-H647,0.103
27,NCI-H1651,0.495

# Same assay, conditions: first compound 0.3162 µM
row,Cell Line,relative viability
1,NCI-H2087,0.0727
2,H3255,0.16
3,LOU-NH91,0.343
4,ChaGo-K-1,0.184
5,NCI-H2170,0.167
6,NCI-H2405,0.307
7,HOP-62,0.151
8,HCC-44,0.332
9,LU99A,0.198
10,BEN,0.366
11,HARA,0.162
12,HCC-78,0.363
13,NCI-H322M,0.462
14,LCLC-97TM1,0.0912
15,A-427,0.204
16,NCI-H441,0.149
17,NCI-H1734,0.157
18,NCI-H460,0.0205
19,NCI-H2347,0.506
20,NCI-H1395,0.337
21,201T,0.332
22,NCI-H1915,0.108
23,HCC-827,0.203
24,LXF-289,0.0762
25,NCI-H23,0.155
26,NCI-H647,0.0938
27,NCI-H1651,0.12

# Same assay, conditions: first compound 1 µM
row,Cell Line,relative viability
1,NCI-H2087,0.0981
2,H3255,0.299
3,LOU-NH91,0.383
4,ChaGo-K-1,0.206
5,NCI-H2170,0.181
6,NCI-H2405,0.392
7,HOP-62,0.142
8,HCC-44,0.298
9,LU99A,0.25
10,BEN,0.421
11,HARA,0.191
12,HCC-78,0.331
13,NCI-H322M,0.451
14,LCLC-97TM1,0.0986
15,A-427,0.185
16,NCI-H441,0.149
17,NCI-H1734,0.164
18,NCI-H460,0.0215
19,NCI-H2347,0.414
20,NCI-H1395,0.345
21,201T,0.225
22,NCI-H1915,0.119
23,HCC-827,0.117
24,LXF-289,0.1
25,NCI-H23,0.168
26,NCI-H647,0.135
27,NCI-H1651,0.0817
